Like-named read-outs stand apart in the source and are kept apart here.
Legend:
[1] = target: T1, human α2C adrenoceptor (Homo sapiens, UniProt P18825); test: β-arrestin recruitment chemiluminescent assay (PathHunter), α2C; assay type: cell-based; conditions: α2CR; for Max activity: relative to UK-14304
T1 construct: expressed in transfected cells
T1 sequence (P18825 1-462): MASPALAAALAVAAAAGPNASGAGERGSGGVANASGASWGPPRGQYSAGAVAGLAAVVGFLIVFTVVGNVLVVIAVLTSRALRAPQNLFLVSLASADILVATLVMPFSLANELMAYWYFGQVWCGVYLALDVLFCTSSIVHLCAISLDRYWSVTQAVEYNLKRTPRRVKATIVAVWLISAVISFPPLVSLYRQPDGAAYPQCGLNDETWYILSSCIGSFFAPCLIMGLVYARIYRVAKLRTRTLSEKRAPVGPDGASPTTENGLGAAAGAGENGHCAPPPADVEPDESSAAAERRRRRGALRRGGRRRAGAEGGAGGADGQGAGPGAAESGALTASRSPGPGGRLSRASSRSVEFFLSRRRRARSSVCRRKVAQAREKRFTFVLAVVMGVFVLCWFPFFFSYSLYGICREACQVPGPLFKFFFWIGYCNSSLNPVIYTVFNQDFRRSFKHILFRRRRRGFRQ
Method: (§1) PathHunter cell lines were expanded from freezer stocks according to standard procedures. Cells were seeded in a total volume of 20 μL into white walled, 384-well microplates and incubated at 37°C for the appropriate time prior to testing. Intermediate dilution of sample stocks was performed to generate 5X sample in assay buffer. […] Vehicle concentration was 1%. […] Microplates were read following signal generation with a PerkinElmer Envision™ instrument for chemiluminescent signal detection.

[2] = target: T2, human α2A adrenoceptor (Homo sapiens, UniProt P08913); test: β-arrestin recruitment chemiluminescent assay (PathHunter), α2A; assay type: cell-based; conditions: α2AR, relative to UK-14304
T2 construct: expressed in transfected cells
T2 sequence (P08913 1-465): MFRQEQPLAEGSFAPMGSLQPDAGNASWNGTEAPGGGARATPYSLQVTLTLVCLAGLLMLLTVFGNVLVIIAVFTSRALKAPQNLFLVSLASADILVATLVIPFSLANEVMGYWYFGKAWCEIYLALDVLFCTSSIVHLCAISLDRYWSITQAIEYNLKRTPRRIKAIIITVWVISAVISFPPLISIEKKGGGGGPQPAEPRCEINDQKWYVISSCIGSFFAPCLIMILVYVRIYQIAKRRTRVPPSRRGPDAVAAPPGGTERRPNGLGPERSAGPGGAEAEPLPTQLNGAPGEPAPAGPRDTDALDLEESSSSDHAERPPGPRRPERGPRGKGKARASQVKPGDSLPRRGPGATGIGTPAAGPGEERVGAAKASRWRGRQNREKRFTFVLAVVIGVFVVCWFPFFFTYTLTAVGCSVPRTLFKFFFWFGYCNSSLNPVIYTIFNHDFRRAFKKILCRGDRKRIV
Method: as §1

[3] = target: T3, human α2A adrenergic receptor (Homo sapiens, UniProt P08913); test: [35S]GTPγS binding assay, α2A; assay type: biochemical; conditions: α2AR; relative to maximal response of UK-14304
T3 construct: expressed in transfected cells; host or cells: Chem-1 (rat hematopoietic cell line), membranes
T3 sequence (P08913 1-465): T2 sequence (P08913 1-465)
Method: (§2) Cells were transfected with constructs encoding either human α2A (Chem-1, rat hematopoietic cell line), or α2B or α2C (Cho-K1, Chinese hamster ovary cell line) adrenergic receptors. Each test compound was prepared in DMSO at 10 mM and diluted to indicated concentrations in the incubation buffer (20 mM HEPES, 100 mM NaCl, 10 mM MgCl2, 1 mM DTT, 1 mM EDTA, pH 7.4.
(§3) Binding data were generated as duplicates. […] Three parameter logistic equations were fitted to the data to obtain EC50 and Emax values.

[4] = target: T4, human α2C adrenergic receptor (Homo sapiens, UniProt P18825); test: [35S]GTPγS binding assay, α2C; assay type: biochemical; conditions: for Max activity / EC50: α2CR; for Max activity: relative to maximal response of UK-14304; for EC50: [35S]GTPγS binding
T4 sequence (P18825 1-462): T1 sequence (P18825 1-462)
Method: as §2, §3

[5] = target: T5, human α2B adrenergic receptor (Homo sapiens, UniProt P18089); test: biochemical
T5 sequence (P18089 1-450): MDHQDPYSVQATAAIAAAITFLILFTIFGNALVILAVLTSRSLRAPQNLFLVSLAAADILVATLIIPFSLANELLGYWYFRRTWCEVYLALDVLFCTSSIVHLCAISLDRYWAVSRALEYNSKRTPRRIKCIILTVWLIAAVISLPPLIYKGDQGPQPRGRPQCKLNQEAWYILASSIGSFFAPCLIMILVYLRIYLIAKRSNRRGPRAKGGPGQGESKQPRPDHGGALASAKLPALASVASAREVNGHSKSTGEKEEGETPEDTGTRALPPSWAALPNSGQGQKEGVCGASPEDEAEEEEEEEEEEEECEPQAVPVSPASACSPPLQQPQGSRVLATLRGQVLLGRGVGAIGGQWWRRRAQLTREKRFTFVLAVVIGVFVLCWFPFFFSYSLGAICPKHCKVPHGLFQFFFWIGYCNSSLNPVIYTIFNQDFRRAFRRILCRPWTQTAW
Method: as §2, §3

[6] = assumed for free plasma calculation; ref Bol et al., 1997; cited from earlier work
[7] = test system: stress-induced immobility after repeated stress; test: Open space swim test; conditions: for time spent in the periphery, change vs vehicle controls / mean duration of immobility, change vs vehicle controls / mean distance travelled, change vs vehicle controls: Day 8, 40 μg/kg i.p. acute; for time spent in the periphery, change vs vehicle controls: p < 0.001
[8] = test system: memory consolidation; test: Cued fear conditioning test; conditions: 10 and 20 μg/kg, 30 min before conditioning
From the text: Rats were housed 1 animal per cage in sterilized solid bottom polycarbonate cages (Dimensions 42.5 cm [L] X 26.5 cm [W] X 18.5 cm [H]) with stainless steel grill tops, facilitate for food and water bottle, and bedding of corncob husk.
Rodent fear conditioning chambers (L x W x H, rat: 26 × 30 × 33 cm, Coulbourn instruments. United States) placed in sound attenuating cabinets were used. Stainless steel grid floors (L x W, rat: 26 × 30 cm), connected to shock scramblers were used to deliver the shock. A ventilation fan provided a background noise of 60 dB. A light bulb (centered on the right wall, and 27 cm above the floor of the chamber) provided ambient illumination. Experiments were recorded using video camera, mounted on the cabinet ceiling and images were analyzed with freeze frame 3 software (V3.2.1). The fear conditioning chambers have transparent acrylic panels. All experimentations were carried out in a single fear conditioning chamber.
On day 0, animals were randomized into eight groups based on their body weight.
Session-I: On day 1 (N = 5), rats were brought to the laboratory at least 1 h prior to experimentation. […]
On day 2, rats were brought to the laboratory at least 1 h prior to experimentation. […] The freezing behavior of the animals was recorded for 6 min (starting from the time the animal placed in the fear conditioning chamber). […]

[9] = target: human α2B adrenoceptor (Homo sapiens, UniProt P18089); test: cell-based
Method: as §1

[10] = in vivo; conditions: male, Sprague Dawley, rat
Method: Male Sprague Dawley (SD) rats, 200–250 g, purchased from Charles River Laboratories (South San Francisco, CA) were used for microdialyses studies. Upon arrival, rats were group-housed in polycarbonate cages (2-3 rats per cage) and acclimated for at least 7 days prior to commencing the studies. […] Rats were tracked via unique identifying numbers.
Ten male SD rats with a jugular vein (JV) cannula were used in this study. Rats were anesthetized using isoflurane (2%, 800 mL/min O2). Bupivacaine was used for local anesthesia and carprofen for peri-/post-operative analgesia. Animals were placed in a stereotaxic frame (Kopf instruments, United States) and MetaQuant microdialysis probes (PAN membrane, BrainLink, Netherlands) were implanted into the prefrontal cortex (PFC), 4 mm exposed surface. Coordinates for the tips of the probes for the PFC are: antero-posterior (AP) = +3.4 mm from bregma, lateral (L) = −0.8 mm from midline and ventral (V) = −5.0 mm from dura, the toothbar set at −3.3 mm. […] The microdialysis probes were connected with flexible PEEK tubing to a microperfusion pump (Harvard PHD 2000 Syringe pump, Holliston, MA). […] Microdialysis samples were collected for 30 min periods by an automated fraction collector (820 Microsampler, Univentor, Malta) into 300 µL polypropylene mini-vials. […]

[11] = test system: sleep onset latency
From the text: Chow and water were provided ad libitum for the duration of the study.

[12] = test system: stress-induced immobility; test: Forced swim test; assay type: in vivo, SD rats; conditions: versus vehicle; for immobility time: 60 min prior
Method: A total of 78 male SD rats (9–10 weeks old) were procured from Hylasco Biotechnology Pvt. Ltd., Hyderabad, India and were divided into seven groups (9–12 animals per group). Animals were housed in an environmentally controlled room at 22°C ± 3°C and relative humidity of 30–70 percent. Adequate fresh air supply of 12–15 air changes/hour was maintained. The temperature was maintained at 20°C–23°C. […] The lights of the acclimatization area were switched off at 06:00 p.m. Two rats per cage were housed in sterilized suspended standard, polysulfone cages, (Size: approximately L425 x B266 x H185 mm), with stainless steel top grills having facilities for holding pelleted food and drinking water in polycarbonate bottles with stainless steel sipper tubes. During the study period animals were housed in a single room. Animals received food and water ad libitum.
The test was carried out in transparent cylindrical glass containers measuring 46 cm in height and 20 cm in diameter. The containers were filled with water (23°C–25 °C) to a depth of 30 cm. Clean drying cages, heat lamps and heat pads were used for the animals that have finished the procedure to avoid hypothermia. The test was carried out in Dark Phase. […] A red bulb of 50 W was used for observation during Swim 1 and Swim 2 procedure. Swim 1 was carried out between 18:30 to 21:30 and Swim 2 was carried out between 19:30 to 21:30.
On test day, animals were dosed intramuscularly with respective treatment 60 min prior to performing FST. […] In swim 2, the first 1-min data was excluded from analysis and the remaining 5 min data was considered.
Rats were placed in the water-filled cylinder for 6 min during Swim 2. […] A rat was judged to be immobile when it remained floating in the water without struggling and was making only those movements necessary to keep its head above water. […] Water was changed after every session to avoid any influence on the next rat. […] The rats were placed in a swim chamber and behaviors were measured for 5 min on test day. Data was presented as total immobility time (in seconds) over the 5-min trial.

[13] = test system: motor coordination; test: Rotarod test; conditions: 4 mg/kg i.p., 30 min before test; p < 0.01
Method: 75 male Swiss mice (6 weeks old, 29–41 g body weight range at the beginning of the experiment) were supplied by Janvier Labs (Le Genest St Isle, France). […] Environmental enrichment such as gnawing and nesting material was provided.
On Day 0, mice were submitted to two training trials separated by a 5-min interval. For each trial, mice were placed on a rod (diameter: 7 cm) rotating at a speed of 18 revolutions per minute for a 3-min period. On Day 1, a final training was performed in the morning (at least 2 h before the drug testing). On Day 1, the test session was performed at least 2 h after the habituation period (in the afternoon) and mice were placed on the rod for a maximum period of 3 min. The latency to fall off the rod was recorded. Data was analyzed by using one-way ANOVA followed by Dunnett’s comparisons test.75 male Swiss mice (6 weeks old, 29–41 g) were allocated into five groups (10–15 animals per group).

[14] = test system: CCK-4 induced anxiety; test: CCK-4 elevated plus maze test
From the text: 48 male Wistar rats were supplied by Janvier (Le Genest St Isle, France) for this study. They were purchased at a body weight of 150 g and reached a body weight of about 270 g at the time of use.
In the present study, 12 animals per group were used. The apparatus is a PVC maze covered with Plexiglas and subdivided into four equal exploratory arms (40 × 10 cm), which are all interconnected by a small platform (10 × 10 cm). The apparatus is placed 65 cm above the floor. Two arms are open, and two others are closed with transparent wall (high: 10 cm).
After compound administration, a rat is placed on the platform opposite a closed arm. The number of entries and the time spent on each arm are recorded during a 5 min period. The animal is considered as entered in an arm when it places its four paws in the arm. The apparatus was cleaned between each animal using alcohol (70%). Urine and feces were removed from the maze. Data were analyzed by One way ANOVA followed by Dunnett’s comparisons test. CCK-4 (0.2 mg/kg) was administered intraperitoneally in the Wistar rats 30 min prior to the test. […] 60 min prior to the study (30 min prior to CCK-4 administration). Diazepam (1 mg/kg) was administered 30 min prior to study (at the time of CCK-4 administration). After the administration of compounds, rats were placed on the platform opposite a closed arm in the elevated plus maze. The number of entries and the time spent in each arm were recorded during a 5 min period. The animal was considered as entered in an arm when it placed its four paws in the arm.

[15] = daily i.p. Day 8 to Day 32, 40 μg/kg, p < 0.0001

Clc1cccc(Cl)c1N=C1NCCN1 [Clonidine]
Max activity [1]: 8%
Max activity [2]: 93%
Max activity [3]: 76%
intrinsic activity at the α2C-AR ([4]; in words, repeated in two assay systems): very low intrinsic activity
Max activity [4]: 32%

CC(Oc1c(Cl)cccc1Cl)C1=NCCN1 (centres unmarked) [Lofexidine]
EC50 [5]: 43 nM
Max activity ([5]; α2BR, relative to maximal response of UK-14304): 97%
EC50 [4]: 23 nM
Max activity [4]: 50%

Cc1cccc([C@H](C)c2cnc[nH]2)c1C [Dexmedetomidine]
bound to plasma proteins [6]: 84%
EC50 [1]: 24 nM
Max activity [1]: 95%
time spent in the periphery, change vs vehicle controls ([7]; first treated group): +159%
mean duration of immobility, change vs vehicle controls ([7]; first treated group, p < 0.01): −43%
mean distance travelled, change vs vehicle controls ([7]; first treated group, p < 0.05): +31%
time spent in the periphery, change vs vehicle controls ([7]; second treated group): +138%
mean distance travelled, change vs vehicle controls ([7]; second treated group, p < 0.01): +36%
mean duration of immobility, change vs vehicle controls ([7]; second treated group, p < 0.01): −36%
mean distance travelled over the testing period [7, 15]: increased
mean duration of immobility over the testing period [7, 15]: decreased
time spent in the periphery over the testing period [7, 15]: increased
Max activity [2]: 101%
memory formation (duration of freezing) [8]: did not impair memory formation
EC50 [5]: 2.8 nM
Max activity [5]: 147%
Max activity [3]: 89%
EC50 [9]: 0.6 nM
Max activity [9]: 106%
Tmax [10]: 30 to 60 min
EC50 [4]: 14 nM
Max activity [4]: 110%
onset of SWS ([11]; 5 μg/kg intramuscular): significantly reduced
onset of SWS ([11]; 20 μg/kg intramuscular): significantly reduced
immobility time ([12]; 1 μg/kg intramuscular, p = 0.0238): significantly decreased
immobility time ([12]; 5 μg/kg intramuscular, p < 0.0001): significantly decreased

N=C(N)NC(=O)Cc1c(Cl)cccc1Cl [Guanfacine]
Max activity [1]: 68%
Max activity [2]: 100%
Max activity [3]: 78%
Max activity [4]: 72%

CN1C(=O)CN=C(c2ccccc2)c2cc(Cl)ccc21 [Diazepam]
latency to fall-off, change vs vehicle controls [13]: −60%
effects in elevated plus maze, positive control ([14]; 1 mg/kg, 30 min prior, with CCK-4): exceeded those measured in vehicle animals

Cholecystokinin tetrapeptide [CCK-4]
number of entries in the open arms ([14]; CCK-4 0.2 mg/kg i.p. alone, vehicle 4.3): 1.3
time spent in the open arms ([14]; CCK-4 0.2 mg/kg i.p. alone, vehicle 45 s): 6 s

CN(C)CCCN1c2ccccc2CCc2ccccc21 [imipramine]
immobility time, positive control ([12]; 30 mg/kg): p = 0.0002 versus vehicle
